Laboratory results reported in patent US20040147723A1, “Moringa seed proteins” (priority 2001, published 2004).
Converted amounts (≈) assume the structure as drawn. Where no end group is shown, it is not given here.

Tests used:
[1] = system: L. pneumophilia serogroup 1; experiment: MIC/MBC in 96-well micro plaque, BYEα medium; assay type: cell-based
Procedure: (§1) Source of bacteria: The bacteria were isolated from drinking water of hospitals in Ticino, patient strains were obtained from the laboratory of microbiology at the CHUV.
(§2) MIC (minimal inhibitory concentration): MIC was measured with the help of a micro plaque with 96 wells, each containing 100 μl. The growth media were BYEα for L. pneumophilia and TSB for Mycobacterium and were containing a certain concentration of the peptide or antibiotic.
(§3) The media were then subjected to twofold dilutions (1 μl of bacterial suspension at a concentration of 5*10^8 CFU/ml diluted to 5*10^6 CFU/ml).
(§4) The L. pneumophilia culture was incubated at 35° C. and the results were read after 48 and 96 hours. The Mycobacterium culture was incubated at 30° C. for up to seven days.
(§5) MIC is the first well […].
(§6) MBC (minimal bactericidal concentration): 50 μl of the above suspensions were plated on solid media BCYEα or agar with blood. The L. pneumophilia culture was incubated at 35° C. for 48 hours and up to seven days for Mycobacterium.
(§7) The MBC value is the first plate without growth.

[2] = system: L. pneumophilia serogroup 10; experiment: MIC/MBC in 96-well micro plaque, BYEα medium; assay type: cell-based
Procedure: as §1, §2, §3, §4, §5, §6, §7

[3] = Coagulation test (glass bead suspension sedimentation); details: 20 μg/ml, glass beads
Procedure: The test was carried out in a 2 ml volume in a spectrophotometer cell (104QS/HELLMA). To evaluate the coagulation activity, 100 mg/ml suspension of 3.5-7 μm diameter glass beads (Sheriglass 5000, Potters-Ballotini) were diluted in 50 mM phosphate buffer, pH=7.0, to mimic turbid water. Stirring was kept continuously at 800 rpm and OD 500 nm was measured each second (LabVIEW sfotware/National Instruments Corporation) in a Perkin-Elmer 552 spectrophotometer. After 5 minutes of continuous stirring the compound to be tested was added to a final concentration of 20 μg/ml, and stirring was continued for 15 minutes. Active compounds were diluted before the test either in phosphate buffer 10 mM, pH=7.0 (E proteins, PHYTOFLOC and bacterially produced Flo) or in distilled water (synthetic Flo).
To quantify the flocculation efficiency a linear regression was performed on time points corresponding to four minutes before the addition of the flocculating preparation (basal sedimentation) and four minutes after the addition of the flocculating preparation (coagulation-mediated sedimentation). The difference between the coagulation-mediated and basal sedimentation was calculated by subtraction in OD per minutes and multiplied by 1000 (Δ slope).
To assess particle coagulation properties of Flo, a suspension of glass beads under continuous mixing was used to mimic turbid water. […]

[4] = system: E.coli ER2566; details: ER2566, 2 h
Procedure: E.coli ER2566 was grown in LB medium to the exponential phase (A600=0.5-0.6) at 37° C. as above. The culture was centrifuged and resuspended in a same volume of 10 mM phosphate buffer pH=7.0, and E proteins, PHYTOFLOC (2 mg/ml), synthetic Flo (0.1 mg/ml to 2 mg/ml) carrier (buffer) or BSA (2 mg/ml) were added. After 2 hours incubation at 37° C., LB was added to the bacteria culture to obtain A600=0.1. All cultures were incubated at 37° C. at 200 rpm and the culture growth was followed through A600 measurements.
An exponential phase E.coli culture was centrifuged and incubated for 2 hrs at 37° C. in phosphate buffer alone (♦), or in phosphate buffer supplemented by the PHYTOFLOC extract (σ) or by synthetic Flo (ν) at a final concentration of 2 mg/ml. Bacteria were then diluted to A600=0.1 in LB growth medium and incubated at 37° C. under agitation. Optical density measurements were then recorded as indicated at 600 nm.
B. Exponentially growing E.coli culture was processed as indicated in (A) except that bacteria were incubated with different concentrations of synthetic Flo in mg/ml: 0 (ν), 0.1 (σ), 0.25 (O), 0.5 (Σ), 1 (λ) or 2 (B). BSA at 2 mg/ml was used as a non specific protein control (♦).

Molecule | MBC [1] [µg/mL] | MIC [1] [µg/mL] | MBC ([2]; L. pneumophilia serogroup 10) [µg/mL] | MIC ([2]; L. pneumophilia serogroup 10, 35° C.) [µg/mL] | specific coagulation activity compared with PHYTOFLOC [3] | IC50 of antibacterial growth response [4]
O=C(O)c1cn(C2CC2)c2cc(N3CCNCC3)c(F)cc2c1=O [Ciprofloxacin] | 30 to 60 (≈ 90.5 to 181 µM) | 30 (≈ 90.5 µM) | 16 to 30 (≈ 48.3 to 90.5 µM) | 16 (≈ 48.3 µM) | – | –
QGPGRQPDFQRCGQQLRNISPPQRCPSLRQAVQLTHQQQGQVGPQQVRQMYRVASNIPST (cysteines drawn unpaired) [synthetic Flo] | – | – | – | – | higher | approximately 100 μg/ml
